Laboratory results: ChEMBL document CHEMBL4033665, “Synthesis and applications of benzohydroxamic acid-based histone deacetylase inhibitors” (Eur J Med Chem, 2017)

Legend:
[1] = species on record: Homo sapiens; test: Selectivity index, ratio of IC50 for human HDAC4 to IC50 for human HDAC6
[2] = molecular target: Histone deacetylase 1 (Homo sapiens, UniProt Q13547); test: Inhibition of human HDAC1 after 15 mins by trypsin-coupled fluorescence assay
[3] = species on record: Homo sapiens; test: Selectivity index, ratio of IC50 for human HDAC9 to IC50 for human HDAC6
[4] = species on record: Homo sapiens; test: Selectivity index, ratio of IC50 for human HDAC10 to IC50 for human HDAC6
[5] = species on record: Homo sapiens; test: Selectivity index, ratio of IC50 for human HDAC7 to IC50 for human HDAC6
[6] = species on record: Homo sapiens; test: Selectivity index, ratio of IC50 for human HDAC5 to IC50 for human HDAC6
[7] = species on record: Homo sapiens; test: Selectivity index, ratio of IC50 for human HDAC1 to IC50 for human HDAC6
[8] = species on record: Homo sapiens; test: Selectivity index, ratio of IC50 for human HDAC3 to IC50 for human HDAC6
[9] = molecular target: T1, Histone deacetylase 7 (Homo sapiens, UniProt Q8WUI4); test: Inhibition of human HDAC7 after 15 mins by trypsin-coupled fluorescence assay
T1 sequence (Q8WUI4 whole entry): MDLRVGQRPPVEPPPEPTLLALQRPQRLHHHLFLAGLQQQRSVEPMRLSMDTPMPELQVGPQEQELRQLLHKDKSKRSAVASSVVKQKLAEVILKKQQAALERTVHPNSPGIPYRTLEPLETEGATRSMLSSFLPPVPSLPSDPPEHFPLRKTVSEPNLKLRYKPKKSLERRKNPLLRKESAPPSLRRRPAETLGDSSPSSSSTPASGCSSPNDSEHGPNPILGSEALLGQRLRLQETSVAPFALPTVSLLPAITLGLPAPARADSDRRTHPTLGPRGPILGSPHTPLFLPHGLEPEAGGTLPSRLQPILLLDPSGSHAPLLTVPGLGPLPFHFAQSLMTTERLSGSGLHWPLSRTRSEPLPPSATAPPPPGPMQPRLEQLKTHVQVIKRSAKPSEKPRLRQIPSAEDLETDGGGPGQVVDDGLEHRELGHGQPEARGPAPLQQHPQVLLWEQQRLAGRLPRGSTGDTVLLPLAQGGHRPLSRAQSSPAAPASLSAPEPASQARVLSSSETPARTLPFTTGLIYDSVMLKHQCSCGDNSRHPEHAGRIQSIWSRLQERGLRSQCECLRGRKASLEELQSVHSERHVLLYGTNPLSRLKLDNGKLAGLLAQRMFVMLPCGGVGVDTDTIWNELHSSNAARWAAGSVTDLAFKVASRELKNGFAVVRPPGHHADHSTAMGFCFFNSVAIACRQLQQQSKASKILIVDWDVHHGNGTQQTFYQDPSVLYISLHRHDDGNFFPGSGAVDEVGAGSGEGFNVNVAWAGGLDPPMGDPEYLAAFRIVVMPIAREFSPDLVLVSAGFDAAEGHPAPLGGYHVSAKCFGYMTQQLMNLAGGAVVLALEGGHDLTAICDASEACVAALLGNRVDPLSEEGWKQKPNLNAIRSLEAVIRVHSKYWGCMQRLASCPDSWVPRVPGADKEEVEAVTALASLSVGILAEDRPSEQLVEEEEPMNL

[10] = molecular target: Histone deacetylase 3 (Homo sapiens, UniProt O15379); test: Inhibition of human HDAC3 after 15 mins by trypsin-coupled fluorescence assay
Histone deacetylase 3, sequence (O15379 whole entry): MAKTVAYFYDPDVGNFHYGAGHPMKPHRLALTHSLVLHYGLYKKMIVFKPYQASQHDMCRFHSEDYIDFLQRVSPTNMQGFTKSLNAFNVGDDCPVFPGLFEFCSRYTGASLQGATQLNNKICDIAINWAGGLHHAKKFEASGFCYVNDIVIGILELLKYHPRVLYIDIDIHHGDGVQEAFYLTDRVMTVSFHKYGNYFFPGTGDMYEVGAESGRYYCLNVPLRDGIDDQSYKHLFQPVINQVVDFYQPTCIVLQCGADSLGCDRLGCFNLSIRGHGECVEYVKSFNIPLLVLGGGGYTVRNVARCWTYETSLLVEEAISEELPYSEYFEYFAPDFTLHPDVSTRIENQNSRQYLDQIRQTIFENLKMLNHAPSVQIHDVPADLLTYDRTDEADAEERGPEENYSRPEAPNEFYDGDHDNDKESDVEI

[11] = species on record: Homo sapiens; test: Selectivity index, ratio of IC50 for human HDAC8 to IC50 for human HDAC6

Histone deacetylase 1, sequence (Q13547 whole entry): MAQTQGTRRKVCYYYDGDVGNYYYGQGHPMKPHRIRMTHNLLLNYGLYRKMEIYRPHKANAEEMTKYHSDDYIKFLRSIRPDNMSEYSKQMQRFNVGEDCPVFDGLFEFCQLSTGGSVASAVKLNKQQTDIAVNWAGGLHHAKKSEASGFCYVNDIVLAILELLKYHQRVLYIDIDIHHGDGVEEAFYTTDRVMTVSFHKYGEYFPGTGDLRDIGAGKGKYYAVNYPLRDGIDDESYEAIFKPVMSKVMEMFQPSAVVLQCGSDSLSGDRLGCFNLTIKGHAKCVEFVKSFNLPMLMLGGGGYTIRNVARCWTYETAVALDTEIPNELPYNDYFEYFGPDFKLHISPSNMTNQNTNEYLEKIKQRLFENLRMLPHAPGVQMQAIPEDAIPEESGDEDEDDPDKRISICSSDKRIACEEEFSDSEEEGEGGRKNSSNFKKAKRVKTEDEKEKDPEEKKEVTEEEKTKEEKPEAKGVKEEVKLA

- Ratio IC50 [1]: 15 to 400
- IC50 [2]: 0.8 µM
- Ratio IC50 [3]: 15 to 400
- Ratio IC50 [4]: 15 to 400
- Ratio IC50 [5]: 15 to 400
- Ratio IC50 [6]: 15 to 400
- Ratio IC50 [7]: 15 to 400
- Ratio IC50 [8]: 15 to 400
- IC50 [9]: 1.1 µM
- IC50 [10]: 2.1 µM
- Ratio IC50 [11]: 15 to 400
Structure (SMILES): O=C(NO)c1ccc(CN(CCO)C(=O)Cc2ccccc2)cc1
